Results taken from article PMC10591299, “Targeting SHP2 with an Active Site Inhibitor Blocks Signaling and Breast Cancer Cell Phenotypes” (ACS Bio & Med Chem Au, 2023).
pIC50: −log10 of the molar value. Where two headings read alike, the source gives them in different places.

Assays:
SHP2 = molecular target: T1, SHP2 (Homo sapiens, UniProt Q06124); experiment: Enzyme kinetic study (Michaelis-Menten, Lineweaver-Burk) with DiFMUP; assay type: biochemical; conditions: Km increased without change in Vmax
T1 construct: the GST fusion of the PTP domains of SHP2, SHP1, and PTP1B were produced and purified as reported by us previously; GST; made in house
T1 sequence (Q06124 247-517 limits assumed): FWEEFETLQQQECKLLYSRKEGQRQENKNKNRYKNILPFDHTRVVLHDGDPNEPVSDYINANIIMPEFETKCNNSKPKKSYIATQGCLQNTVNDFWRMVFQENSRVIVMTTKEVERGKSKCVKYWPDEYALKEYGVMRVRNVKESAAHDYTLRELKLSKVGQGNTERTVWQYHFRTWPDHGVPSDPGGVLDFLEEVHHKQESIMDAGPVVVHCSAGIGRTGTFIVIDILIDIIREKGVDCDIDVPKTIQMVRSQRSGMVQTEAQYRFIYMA
Experimental: As such, its mechanism of inhibition is expected to be through competitive binding to the active site. To verify this point, we conducted enzyme kinetic studies using the artificial substrate DiFMUP in the presence and absence of CNBCA. Briefly, 400 μM DiFMUP in the PTPase buffer was added to the 12th well in the 96-well plate and then serially diluted to as low as 3.12 μM in the successive wells. After adding the enzyme to a final concentration of 1.0 nM in a total volume of 100 μL, the fluorescence of the enzyme reaction rate was measured for a total of 3 min at 10 s interval in the Synergy 4 plate reader at the excitation and emission wavelengths of 360 and 460 nm, respectively. The data was transformed into relative fluorescence unit (RFU) per second and plotted using the Graphpad software to produce the Michaelis–Menten and the Lineweaver–Burk plots.
In these reactions, the enzyme was added last, and the fluorescence was read for 3 min at 10 s interval. Changes in fluorescence intensity were used to calculate the Km of the SHP2 enzyme for DiFMUP in the presence and absence of CNBCA. The Graphpad Prism was used to prepare the Michaelis–Menten and Lineweaver–Burk plots and to determine the Km values.

MDA-MB468 cells [1] = experiment: Basal pAkt and pERK1/2 signaling by immunoblotting in MDA-MB468 cells; assay type: cell-based; conditions: Homo sapiens, MDA-MB-468; MDA-MB468, 48 h treatment, band density pAkt and pERK1/2; read-out: IC50 for SHP2 mediated Akt and ERK1/2 activation
Experimental: (§1) Since SHP2 is an essential mediator of mitogenic and cell survival signaling in breast cancer cells, we determined the effect of CNBCA treatment on activation of ERK1/2 and Akt in the HER2-positive BT474 and in the triple-negative MDA-MB468 cell lines. Cells growing in 2D culture were treated with varying concentrations of CNBCA, ranging from 0.250 to 2.0 μM, for 48 h, and total cell lysates were analyzed by immunoblotting (IB) with antibodies that recognize the activated forms of ERK1/2 (pERK1/2) and Akt (pAkt).

MDA-MB468 cells [2] = experiment: Cell growth in 2D culture, MDA-MB468; assay type: cell-based; conditions: MDA-MB468, 500 nM, 72 h; vehicle treated cells grew to confluency
Experimental: (§2) Since SHP2 is essential for the growth and transformation of BC cells,[8],[9],[11] we determined the effect of SHP2 inhibition with CNBCA in 2D and 3D culture systems. For the effect on cell growth, BC cells (BT474 and MDA-MB468) were seeded in 2D culture and treated with a single concentration of CNBCA (500 nM), the concentration that provided a 50% inhibition of SHP2 mediated signaling in BT474 cells. Images were collected at the start and every 24 h for a total of 72 h (3 days). […] For effect on anchorage independent growth, approximately 10^6 cells were seeded in soft agar as described previously,[24] and treated with CNBCA at 500 nM concentration for 10 days with refeeding and adjustment of compound concentration. […] Finally, the effect of CNBCA on cancer stem cell properties was determined by the suspension assay, in which only cells with stem-like properties only can grow and form mammospheres.[7],[24],[36] Approximately 10^6 cells were seeded in nonadherent 6 cm plates and treated with CNBCA (500 nM) for 10 days with complementation of media and drug concentration.

BT474 cells [3] = experiment: Basal pAkt and pERK1/2 signaling by immunoblotting in BT474 cells; assay type: cell-based; conditions: Homo sapiens, BT-474
Experimental: as §1

BT474 cells [4] = experiment: Mammosphere formation in suspension culture, BT474; assay type: cell-based; conditions: BT474, 500 nM, 10 days, versus vehicle
Experimental: as §2
To further evaluate the anti-breast cancer cell effect of CNBCA, we treated cells seeded in a suspension culture known as the mammosphere assay. In this assay, cells with cancer stem cell properties can grow and form sphere-like cellular aggregates known as mammospheres.[7],[38] […]

BT474 cells [5] = experiment: Cell growth in 2D culture, BT474; assay type: cell-based; conditions: BT474, 500 nM, 72 h; vehicle treated cells grew to confluency
Experimental: as §2

Q: What does the source list for `CCCCCCCCCOc1ccc(-c2ccc(C(=O)O)cc2)cc1CCCC(=O)O` [CNBCA, 3′-(3-carboxypropyl)-4′-(nonyloxy)-[1,1′-biphenyl]-4-carboxylic acid]?
A: mechanism of inhibition (SHP2): competitive inhibitor; pIC50 (MDA-MB468 cells [1]): ~6.00; cell growth in 2D culture (MDA-MB468 cells [2]): half-confluent; pIC50 (BT474 cells [3]; BT474, 48 h treatment, band density pAkt and pERK1/2, read-out: IC50 for SHP2 mediated Akt and ERK1/2 activation): ~6.00; pIC50 (BT474 cells [3]; BT474 cells, read-out: concentration that provided a 50% inhibition of SHP2 mediated signaling): 6.30; mammosphere formation (BT474 cells [4]): fewer and smaller mammospheres; cell growth in 2D culture (BT474 cells [5]): half-confluent
